# Measurements: patent publication US20250387358A1 (SpringWorks Therapeutics, Inc., priority 2024, published 2025)
# Tested on: NF1-associated plexiform neurofibromas (PNs)
# Assay: Phase 2b trial, efficacy by BICR volumetric MRI per REiNS criteria
# Format: in vivo, human
# Details: observed time
# Procedure: Participants were screened (assessed for eligibility as described below). […] The median age was 34.5 years (range 18 to 69 years); 85% were white and 64% were female. […] The most commonly reported morbidities were pain (90%) and disfigurement or major deformity (52%).
# The median age was 10 years (range 2 to 17 years); 66% were white and 54% were female. […] The most commonly reported morbidities were pain (70%) and disfigurement or major deformity (50%).
# Study treatment was administered orally at a twice daily (BID) dose specified in the table below. Dosing was on a 28-day Cycle (4-week course) with a 3 week on/1 week off schedule. The treatment period will last for up to 24 Cycles followed by a 30-day Safety Follow-Up period.
# A partial response was defined as PN decrease ≥20% compared to baseline using centrally read MRI volumetric analysis.
# The major efficacy outcome measure was confirmed objective response rate (ORR), defined as the percentage of patients with complete response (disappearance of the target PN) or confirmed partial response (≥20% reduction in PN volume confirmed at a subsequent tumor assessment within 2-6 months during the 24-cycle treatment phase). Responses were assessed by blinded independent central review (BICR) using volumetric magnetic resonance imaging (MRI) analysis per Response Evaluation in Neurofibromatosis and Schwannomatosis (REINS) criteria. A secondary efficacy objective was to determine the duration of response for patients who achieved a confirmed objective response.
# [1] = Pediatric, first DoR line (r12)
# [2] = Pediatric, second DoR line (r13)
compound,measurement,setting,value
"O=C(NOC[C@H](O)CO)c1ccc(F)c(F)c1Nc1ccc(I)cc1F (single isomer, unassigned) [mirdametinib]","DoR ≥12 months, % of responders","Adult, first DoR line (r12)",(88%)
same,"DoR ≥12 months, number of responders","Adult, first DoR line (r12)",21
same,"DoR ≥12 months, % of responders","Adult, second DoR line (r13)",(48%)
same,"DoR ≥12 months, number of responders","Adult, second DoR line (r13)",14
same,"DoR ≥12 months, % of responders",[1],(90%)
same,"DoR ≥12 months, number of responders",[1],26
same,"DoR ≥12 months, % of responders",[2],(66%)
same,"DoR ≥12 months, number of responders",[2],19
